Measured values as given in ChEMBL document CHEMBL3112480, “γ-Alkylidene-γ-lactones and isobutylpyrrol-2(5H)-ones analogues to rubrolides as inhibitors of biofilm formation by gram-positive and gram-negative bacteria” (Bioorg Med Chem Lett, 2014).
Converted amounts (≈) assume the structure as drawn.

What was measured:
[1] = system: Staphylococcus epidermidis; test: Antibacterial activity against Staphylococcus epidermidis ATCC 35547 assessed as effect on planktonic growth at 21.9 ug/ml after 20 hrs relative to control; type: functional
Streptococcus mutans [2] = test: Antibacterial activity against Streptococcus mutans ATCC 25175 assessed as effect on planktonic growth at 87.5 ug/ml after 20 hrs relative to control; type: functional
Staphylococcus aureus [3] = test: Antibacterial activity against Staphylococcus aureus ATCC 25923 assessed as effect on planktonic growth at 5.5 ug/ml after 20 hrs relative to control; type: functional
Staphylococcus aureus [4] = test: Antibacterial activity against Staphylococcus aureus ATCC 25923 assessed as effect on planktonic growth at 0.17 ug/ml after 20 hrs relative to control; type: functional
Staphylococcus aureus [5] = test: Antibacterial activity against Staphylococcus aureus ATCC 25923 assessed as effect on planktonic growth at 0.68 ug/ml after 20 hrs relative to control; type: functional
[6] = system: Staphylococcus epidermidis; test: Antibacterial activity against Staphylococcus epidermidis ATCC 35547 assessed as effect on planktonic growth at 5.5 ug/ml after 20 hrs relative to control; type: functional
Streptococcus mutans [7] = test: Antibacterial activity against Streptococcus mutans ATCC 25175 assessed as effect on planktonic growth at 2.73 ug/ml after 20 hrs relative to control; type: functional
Staphylococcus aureus [8] = test: Antibacterial activity against Staphylococcus aureus ATCC 25923 assessed as effect on planktonic growth at 21.9 ug/ml after 20 hrs relative to control; type: functional
Pseudomonas aeruginosa [9] = test: Antibacterial activity against Pseudomonas aeruginosa ATCC 27853 assessed as effect on planktonic growth at 2.73 ug/ml after 20 hrs relative to control; type: functional
Pseudomonas aeruginosa [10] = test: Antibacterial activity against Pseudomonas aeruginosa ATCC 27853 assessed as effect on planktonic growth at 21.9 ug/ml after 20 hrs relative to control; type: functional
Pseudomonas aeruginosa [11] = test: Antibacterial activity against Pseudomonas aeruginosa ATCC 27853 assessed as effect on planktonic growth at 0.68 ug/ml after 20 hrs relative to control; type: functional
[12] = system: Staphylococcus epidermidis; test: Antibacterial activity against Staphylococcus epidermidis ATCC 35547 assessed as effect on planktonic growth at 0.17 ug/ml after 20 hrs relative to control; type: functional
[13] = system: Staphylococcus epidermidis; test: Antibacterial activity against Staphylococcus epidermidis ATCC 35547 assessed as effect on planktonic growth at 10.9 ug/ml after 20 hrs relative to control; type: functional
[14] = system: Staphylococcus epidermidis; test: Antibacterial activity against Staphylococcus epidermidis ATCC 35547 assessed as effect on planktonic growth at 1.37 ug/ml after 20 hrs relative to control; type: functional
[15] = system: Staphylococcus epidermidis; test: Antibacterial activity against Staphylococcus epidermidis ATCC 35547 assessed as effect on planktonic growth at 43.8 ug/ml after 20 hrs relative to control; type: functional
Pseudomonas aeruginosa [16] = test: Antibacterial activity against Pseudomonas aeruginosa ATCC 27853 assessed as effect on planktonic growth at 5.5 ug/ml after 20 hrs relative to control; type: functional
[17] = system: Staphylococcus epidermidis; test: Antibacterial activity against Staphylococcus epidermidis ATCC 35547 assessed as effect on planktonic growth at 87.5 ug/ml after 20 hrs relative to control; type: functional
Streptococcus mutans [18] = test: Antibacterial activity against Streptococcus mutans ATCC 25175 assessed as effect on planktonic growth at 0.68 ug/ml after 20 hrs relative to control; type: functional
[19] = system: Staphylococcus epidermidis; test: Antibacterial activity against Staphylococcus epidermidis ATCC 35547 assessed as effect on planktonic growth at 0.34 ug/ml after 20 hrs relative to control; type: functional
Staphylococcus aureus [20] = test: Antibacterial activity against Staphylococcus aureus ATCC 25923 assessed as effect on planktonic growth at 10.9 ug/ml after 20 hrs relative to control; type: functional
Streptococcus mutans [21] = test: Antibacterial activity against Streptococcus mutans ATCC 25175 assessed as effect on planktonic growth at 0.17 ug/ml after 20 hrs relative to control; type: functional
[22] = system: Staphylococcus epidermidis; test: Antibacterial activity against Staphylococcus epidermidis ATCC 35547 assessed as inhibition of biofilm formation after 20 hrs by crystal-violet staining method; type: functional, organism-based; conditions: for IC50: ATCC 35547, 20 h
Streptococcus mutans [23] = test: Antibacterial activity against Streptococcus mutans ATCC 25175 assessed as effect on planktonic growth at 10.9 ug/ml after 20 hrs relative to control; type: functional
Staphylococcus aureus [24] = test: Antibacterial activity against Staphylococcus aureus ATCC 25923 assessed as effect on planktonic growth at 43.8 ug/ml after 20 hrs relative to control; type: functional
[25] = system: Staphylococcus epidermidis; test: Antibacterial activity against Staphylococcus epidermidis ATCC 35547 assessed as effect on planktonic growth at 2.73 ug/ml after 20 hrs relative to control; type: functional
Streptococcus mutans [26] = test: Antibacterial activity against Streptococcus mutans ATCC 25175 assessed as effect on planktonic growth at 0.34 ug/ml after 20 hrs relative to control; type: functional
Pseudomonas aeruginosa [27] = test: Antibacterial activity against Pseudomonas aeruginosa ATCC 27853 assessed as effect on planktonic growth at 1.37 ug/ml after 20 hrs relative to control; type: functional
Streptococcus mutans [28] = test: Antibacterial activity against Streptococcus mutans ATCC 25175 assessed as effect on planktonic growth at 21.9 ug/ml after 20 hrs relative to control; type: functional
Streptococcus mutans [29] = test: Antibacterial activity against Streptococcus mutans ATCC 25175 assessed as effect on planktonic growth at 43.8 ug/ml after 20 hrs relative to control; type: functional
Pseudomonas aeruginosa [30] = test: Antibacterial activity against Pseudomonas aeruginosa ATCC 27853 assessed as inhibition of biofilm formation after 20 hrs by crystal-violet staining method; type: functional, organism-based; conditions: for IC50: ATCC 27853, 20 h
Pseudomonas aeruginosa [31] = test: Antibacterial activity against Pseudomonas aeruginosa ATCC 27853 assessed as effect on planktonic growth at 10.9 ug/ml after 20 hrs relative to control; type: functional
Staphylococcus aureus [32] = test: Antibacterial activity against Staphylococcus aureus ATCC 25923 assessed as effect on planktonic growth at 2.73 ug/ml after 20 hrs relative to control; type: functional
Staphylococcus aureus [33] = test: Antibacterial activity against Staphylococcus aureus ATCC 25923 assessed as effect on planktonic growth at 0.34 ug/ml after 20 hrs relative to control; type: functional
Staphylococcus aureus [34] = test: Antibacterial activity against Staphylococcus aureus ATCC 25923 assessed as effect on planktonic growth at 87.5 ug/ml after 20 hrs relative to control; type: functional
Staphylococcus aureus [35] = test: Antibacterial activity against Staphylococcus aureus ATCC 25923 assessed as effect on planktonic growth at 1.37 ug/ml after 20 hrs relative to control; type: functional
Pseudomonas aeruginosa [36] = test: Antibacterial activity against Pseudomonas aeruginosa ATCC 27853 assessed as effect on planktonic growth at 87.5 ug/ml after 20 hrs relative to control; type: functional
Pseudomonas aeruginosa [37] = test: Antibacterial activity against Pseudomonas aeruginosa ATCC 27853 assessed as effect on planktonic growth at 0.34 ug/ml after 20 hrs relative to control; type: functional
Pseudomonas aeruginosa [38] = test: Antibacterial activity against Pseudomonas aeruginosa ATCC 27853 assessed as effect on planktonic growth at 0.17 ug/ml after 20 hrs relative to control; type: functional
[39] = system: Staphylococcus epidermidis; test: Antibacterial activity against Staphylococcus epidermidis ATCC 35547 assessed as effect on planktonic growth at 0.68 ug/ml after 20 hrs relative to control; type: functional
Pseudomonas aeruginosa [40] = test: Antibacterial activity against Pseudomonas aeruginosa ATCC 27853 assessed as effect on planktonic growth at 43.8 ug/ml after 20 hrs relative to control; type: functional
Streptococcus mutans [41] = test: Antibacterial activity against Streptococcus mutans ATCC 25175 assessed as effect on planktonic growth at 5.5 ug/ml after 20 hrs relative to control; type: functional
Streptococcus mutans [42] = test: Antibacterial activity against Streptococcus mutans ATCC 25175 assessed as effect on planktonic growth at 1.37 ug/ml after 20 hrs relative to control; type: functional

Q: How did the Activity [1] turn out when COc1ccc(Br)cc1C1=C(Br)C(=O)N(CC(C)C)/C1=C\c1cccc(Cl)c1 was run?
A: 57.9%

Q: And the Activity (Streptococcus mutans [2])?
A: -4%

Q: What about the Activity (Staphylococcus aureus [3]) of the same compound?
A: 0.5%

Q: What about the Activity (Staphylococcus aureus [4]) of the same compound?
A: -3.5%

Q: What about the Activity (Staphylococcus aureus [5]) of the same compound?
A: 1.1%

Q: And the Activity [6]?
A: 2.1%

Q: What about the Activity (Streptococcus mutans [7]) of the same compound?
A: -6.2%

Q: What about the Activity (Staphylococcus aureus [8]) of the same compound?
A: 5.1%

Q: And the Activity (Pseudomonas aeruginosa [9])?
A: 0.1%

Q: What about the Activity (Pseudomonas aeruginosa [10]) of the same compound?
A: -4.8%

Q: And the Activity (Pseudomonas aeruginosa [11])?
A: -0.3%

Q: What about the Activity [12] of the same compound?
A: 2.2%

Q: What about the Activity [13] of the same compound?
A: 23.2%

Q: What about the Activity [14] of the same compound?
A: 9.8%

Q: And the Activity [15]?
A: 84.7%

Q: What about the Activity (Pseudomonas aeruginosa [16]) of the same compound?
A: -3.1%

Q: And the Activity [17]?
A: 72.2%

Q: And the Activity (Streptococcus mutans [18])?
A: 11.4%

Q: And the Activity [19]?
A: 6.4%

Q: What about the Activity (Staphylococcus aureus [20]) of the same compound?
A: 2.4%

Q: What about the Activity (Streptococcus mutans [21]) of the same compound?
A: -1.2%

Q: And the inhibition [22]?
A: Dose-dependent effect

Q: And the IC50 [22]?
A: 31.1 µg/mL (≈ 59.2 µM)

Q: And the Activity (Streptococcus mutans [23])?
A: -19.1%

Q: What about the Activity (Staphylococcus aureus [24]) of the same compound?
A: 16.3%

Q: What about the Activity [25] of the same compound?
A: 6.8%

Q: And the Activity (Streptococcus mutans [26])?
A: 6.7%

Q: What about the Activity (Pseudomonas aeruginosa [27]) of the same compound?
A: 3%

Q: And the Activity (Streptococcus mutans [28])?
A: -10.1%

Q: What about the Activity (Streptococcus mutans [29]) of the same compound?
A: -15.3%

Q: What about the inhibition (Pseudomonas aeruginosa [30]) of the same compound?
A: Dose-dependent effect

Q: And the IC50 (Pseudomonas aeruginosa [30])?
A: > 87.5 µg/mL

Q: What about the Activity (Pseudomonas aeruginosa [31]) of the same compound?
A: -9%

Q: And the Activity (Staphylococcus aureus [32])?
A: -2.7%

Q: What about the Activity (Staphylococcus aureus [33]) of the same compound?
A: -1.1%

Q: And the Activity (Staphylococcus aureus [34])?
A: 18.4%

Q: And the Activity (Staphylococcus aureus [35])?
A: -7.2%

Q: And the Activity (Pseudomonas aeruginosa [36])?
A: 14.6%

Q: What about the Activity (Pseudomonas aeruginosa [37]) of the same compound?
A: -4.4%

Q: What about the Activity (Pseudomonas aeruginosa [38]) of the same compound?
A: 0.6%

Q: What about the Activity [39] of the same compound?
A: 5.6%

Q: And the Activity (Pseudomonas aeruginosa [40])?
A: -5.6%

Q: What about the Activity (Streptococcus mutans [41]) of the same compound?
A: 1.5%

Q: What about the Activity (Streptococcus mutans [42]) of the same compound?
A: 2.7%

Q: Which results are given for COc1ccc(Cl)cc1C1=C(Br)C(=O)N(CC(C)C)/C1=C/c1ccccc1Br?
A: Activity [1]: 10.6%; Activity (Streptococcus mutans [2]): 6.4%; Activity (Staphylococcus aureus [3]): 0.2%; Activity (Staphylococcus aureus [4]): 2.7%; Activity (Staphylococcus aureus [5]): 3%; Activity [6]: 2.7%; Activity (Streptococcus mutans [7]): -3.3%; Activity (Staphylococcus aureus [8]): -6.2%; Activity (Pseudomonas aeruginosa [9]): -5.8%; Activity (Pseudomonas aeruginosa [10]): -14.6%; Activity (Pseudomonas aeruginosa [11]): -7.5%; Activity [12]: 1.9%; Activity [13]: -0.4%; Activity [14]: -0.4%; Activity [15]: 21.8%; Activity (Pseudomonas aeruginosa [16]): -5.1%; Activity [17]: 31.5%; Activity (Streptococcus mutans [18]): -13.4%; Activity [19]: 5.5%; Activity (Staphylococcus aureus [20]): -4.6%; Activity (Streptococcus mutans [21]): -19.5%; inhibition [22]: Dose-dependent effect; IC50 [22]: 33.2 µg/mL (≈ 63.2 µM); Activity (Streptococcus mutans [23]): -4.3%; Activity (Staphylococcus aureus [24]): -4.3%; Activity [25]: -3.7%; Activity (Streptococcus mutans [26]): -18.8%; Activity (Pseudomonas aeruginosa [27]): -5.8%; Activity (Streptococcus mutans [28]): 7%; Activity (Streptococcus mutans [29]): 1.5%; inhibition (Pseudomonas aeruginosa [30]): Dose-dependent effect; IC50 (Pseudomonas aeruginosa [30]): > 87.5 µg/mL; Activity (Pseudomonas aeruginosa [31]): -18.1%; Activity (Staphylococcus aureus [32]): 7.5%; Activity (Staphylococcus aureus [33]): -0.7%; Activity (Staphylococcus aureus [34]): 3.6%; Activity (Staphylococcus aureus [35]): -2.5%; Activity (Pseudomonas aeruginosa [36]): -9.1%; Activity (Pseudomonas aeruginosa [37]): -3.9%; Activity (Pseudomonas aeruginosa [38]): -1.8%; Activity [39]: -2.2%; Activity (Pseudomonas aeruginosa [40]): -14.6%; Activity (Streptococcus mutans [41]): 1.8%; Activity (Streptococcus mutans [42]): -8.2%
